From PubChem BioAssay (NCI)
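Cells were grown in 96-well plates and exposed to each compound for 48 hours at five concentrations; endpoints were interpolated linearly between bracketing concentrations, or set to the highest concentration if not reached. Abbreviation: GI50, concentration required for 50% inhibition of growth. The concentration for full growth arrest is given as TGI.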

How the values were obtained:
Assay in all cases: DTP human tumour cell line panel, 48 h
LOX IMVI melanoma = test system: LOX IMVI melanoma
OVCAR-5 ovarian = test system: OVCAR-5 ovarian
TK-10 renal = test system: TK-10 renal
HCT-116 colon = test system: HCT-116 colon
IGROV1 ovarian = test system: IGROV1 ovarian
SK-MEL-5 melanoma = test system: SK-MEL-5 melanoma
MCF7 breast = test system: MCF7 breast
SF-539 CNS = test system: SF-539 CNS
SR leukemia = test system: SR leukemia
NCI-H226 lung = test system: NCI-H226 lung
MDA-MB-435 = test system: MDA-MB-435
A498 renal = test system: A498 renal
HS 578T breast = test system: HS 578T breast
SW-620 colon = test system: SW-620 colon
SNB-75 CNS = test system: SNB-75 CNS
CCRF-CEM leukemia = test system: CCRF-CEM leukemia
HOP-62 NSCLC = test system: HOP-62 NSCLC
BT-549 breast = test system: BT-549 breast
MDA-MB-231 breast = test system: MDA-MB-231 breast
K-562 leukemia = test system: K-562 leukemia
NCI-H460 lung = test system: NCI-H460 lung
CAKI-1 renal = test system: CAKI-1 renal
NCI-H23 lung = test system: NCI-H23 lung
MDA-MB-468 breast = test system: MDA-MB-468 breast
OVCAR-4 ovarian = test system: OVCAR-4 ovarian
HOP-92 NSCLC = test system: HOP-92 NSCLC
NCI/ADR-RES ovarian = test system: NCI/ADR-RES ovarian
NCI-H522 lung = test system: NCI-H522 lung
SK-OV-3 ovarian = test system: SK-OV-3 ovarian
786-0 renal = test system: 786-0 renal
MALME-3M melanoma = test system: MALME-3M melanoma
A549 NSCLC = test system: A549 NSCLC
HCC-2998 colon = test system: HCC-2998 colon
RXF 393 renal = test system: RXF 393 renal
HL-60(TB) leukemia = test system: HL-60(TB) leukemia
RPMI-8226 leukemia = test system: RPMI-8226 leukemia
MOLT-4 leukemia = test system: MOLT-4 leukemia
UACC-62 melanoma = test system: UACC-62 melanoma
T-47D breast = test system: T-47D breast
EKVX NSCLC = test system: EKVX NSCLC
SNB-19 CNS = test system: SNB-19 CNS
UACC-257 melanoma = test system: UACC-257 melanoma
M14 melanoma = test system: M14 melanoma
OVCAR-8 ovarian = test system: OVCAR-8 ovarian
DU-145 prostate = test system: DU-145 prostate
SF-295 CNS = test system: SF-295 CNS
HCT-15 colon = test system: HCT-15 colon
OVCAR-3 ovarian = test system: OVCAR-3 ovarian
SN12C renal = test system: SN12C renal
HT29 colon = test system: HT29 colon
KM12 colon = test system: KM12 colon
COLO 205 colon = test system: COLO 205 colon
ACHN renal = test system: ACHN renal
SK-MEL-2 melanoma = test system: SK-MEL-2 melanoma
U251 CNS = test system: U251 CNS
SK-MEL-28 melanoma = test system: SK-MEL-28 melanoma
SF-268 CNS = test system: SF-268 CNS
PC-3 prostate = test system: PC-3 prostate
UO-31 renal = test system: UO-31 renal

Work on O=C(COc1ccc(/C=C2/C(=O)Nc3ccc(Cl)cc32)cc1)Nc1ccc(Br)cc1 yielded a GI50 (LOX IMVI melanoma) of 1.36 µM, a TGI (LOX IMVI melanoma) of 2.64 µM and a GI50 (OVCAR-5 ovarian) of 2.29 µM. For the same compound, the TGI (OVCAR-5 ovarian) was 7.61 µM, the GI50 (TK-10 renal) was 2.74 µM and the TGI (TK-10 renal) was 5.51 µM. For the same compound, the GI50 (HCT-116 colon) was 1.55 µM, the TGI (HCT-116 colon) was 3.09 µM and the GI50 (IGROV1 ovarian) was 2.24 µM. The TGI (IGROV1 ovarian) was 8.14 µM, the GI50 (SK-MEL-5 melanoma) was 2.14 µM and the TGI (SK-MEL-5 melanoma) was 5.47 µM. It also gave a GI50 (MCF7 breast) of 2.03 µM, a TGI (MCF7 breast) of 7.86 µM and a GI50 (SF-539 CNS) of 1.59 µM. For the same compound, the TGI (SF-539 CNS) was 3.04 µM, the GI50 (SR leukemia) was 2.93 µM and the TGI (SR leukemia) was 12.1 µM. The GI50 (NCI-H226 lung) was 1.55 µM, the TGI (NCI-H226 lung) was 3.81 µM and the GI50 (MDA-MB-435) was 3.45 µM. It also gave a TGI (MDA-MB-435) of 13.5 µM, a GI50 (A498 renal) of 7.37 µM and a TGI (A498 renal) of 19.6 µM. It also gave a GI50 (HS 578T breast) of 2.02 µM, a TGI (HS 578T breast) of 6.68 µM and a GI50 (SW-620 colon) of 1.89 µM. It also gave a TGI (SW-620 colon) of 3.82 µM, a GI50 (SNB-75 CNS) of 5.09 µM and a TGI (SNB-75 CNS) of 20.3 µM. The GI50 (CCRF-CEM leukemia) was 2.11 µM, the TGI (CCRF-CEM leukemia) was 5.54 µM and the GI50 (HOP-62 NSCLC) was 1.62 µM. The TGI (HOP-62 NSCLC) was 3.79 µM, the GI50 (BT-549 breast) was 1.43 µM and the TGI (BT-549 breast) was 4.75 µM. It also gave a GI50 (MDA-MB-231 breast) of 1.36 µM, a TGI (MDA-MB-231 breast) of 2.88 µM and a GI50 (K-562 leukemia) of 2.11 µM. For the same compound, the TGI (K-562 leukemia) was 12.7 µM, the GI50 (NCI-H460 lung) was 1.91 µM and the TGI (NCI-H460 lung) was 3.79 µM. It also gave a GI50 (CAKI-1 renal) of 1.47 µM, a TGI (CAKI-1 renal) of 3.58 µM and a GI50 (NCI-H23 lung) of 1.66 µM. It also gave a TGI (NCI-H23 lung) of 3.46 µM, a GI50 (MDA-MB-468 breast) of 10.3 µM and a TGI (MDA-MB-468 breast) of 22 µM. The GI50 (OVCAR-4 ovarian) was 1.85 µM, the TGI (OVCAR-4 ovarian) was 3.93 µM and the GI50 (HOP-92 NSCLC) was 1.61 µM. The TGI (HOP-92 NSCLC) was 3.83 µM, the GI50 (NCI/ADR-RES ovarian) was 1.77 µM and the TGI (NCI/ADR-RES ovarian) was 4.04 µM. The GI50 (NCI-H522 lung) was 1.71 µM, the TGI (NCI-H522 lung) was 4.64 µM and the GI50 (SK-OV-3 ovarian) was 1.49 µM. The TGI (SK-OV-3 ovarian) was 4.12 µM, the GI50 (786-0 renal) was 1.78 µM and the TGI (786-0 renal) was 3.21 µM. It also gave a GI50 (MALME-3M melanoma) of 1.5 µM, a TGI (MALME-3M melanoma) of 3.68 µM and a GI50 (A549 NSCLC) of 1.52 µM. The TGI (A549 NSCLC) was 3.28 µM, the GI50 (HCC-2998 colon) was 4.46 µM and the TGI (HCC-2998 colon) was 17.6 µM. For the same compound, the GI50 (RXF 393 renal) was 1.59 µM, the TGI (RXF 393 renal) was 3.24 µM and the GI50 (HL-60(TB) leukemia) was 3.51 µM. The TGI (HL-60(TB) leukemia) was 14.9 µM, the GI50 (RPMI-8226 leukemia) was 4.04 µM and the TGI (RPMI-8226 leukemia) was 14.8 µM. It also gave a GI50 (MOLT-4 leukemia) of 2.61 µM, a TGI (MOLT-4 leukemia) of 8.48 µM and a GI50 (UACC-62 melanoma) of 1.35 µM. It also gave a TGI (UACC-62 melanoma) of 5.72 µM, a GI50 (T-47D breast) of 1.93 µM and a TGI (T-47D breast) of 7.56 µM. It also gave a GI50 (EKVX NSCLC) of 1.92 µM, a TGI (EKVX NSCLC) of 5.99 µM and a GI50 (SNB-19 CNS) of 2.72 µM. For the same compound, the TGI (SNB-19 CNS) was 8.08 µM, the GI50 (UACC-257 melanoma) was 4.3 µM and the TGI (UACC-257 melanoma) was 16.5 µM. The GI50 (M14 melanoma) was 1.67 µM, the TGI (M14 melanoma) was 5.81 µM and the GI50 (OVCAR-8 ovarian) was 1.87 µM. For the same compound, the TGI (OVCAR-8 ovarian) was 3.93 µM, the GI50 (DU-145 prostate) was 2.38 µM and the TGI (DU-145 prostate) was 6.52 µM. The GI50 (SF-295 CNS) was 1.74 µM, the TGI (SF-295 CNS) was 3.8 µM and the GI50 (HCT-15 colon) was 1.4 µM. The TGI (HCT-15 colon) was 10.1 µM, the GI50 (OVCAR-3 ovarian) was 1.7 µM and the TGI (OVCAR-3 ovarian) was 3.18 µM. For the same compound, the GI50 (SN12C renal) was 1.75 µM, the TGI (SN12C renal) was 4.39 µM and the GI50 (HT29 colon) was 2.87 µM. For the same compound, the TGI (HT29 colon) was 9.07 µM, the GI50 (KM12 colon) was 2.47 µM and the TGI (KM12 colon) was 11.6 µM. The GI50 (COLO 205 colon) was 4.61 µM, the TGI (COLO 205 colon) was 17.1 µM and the GI50 (ACHN renal) was 1.2 µM. The TGI (ACHN renal) was 2.47 µM, the GI50 (SK-MEL-2 melanoma) was 2.58 µM and the TGI (SK-MEL-2 melanoma) was 10.8 µM. The GI50 (U251 CNS) was 1.75 µM, the TGI (U251 CNS) was 3.29 µM and the GI50 (SK-MEL-28 melanoma) was 1.98 µM. For the same compound, the TGI (SK-MEL-28 melanoma) was 5.02 µM, the GI50 (SF-268 CNS) was 2.42 µM and the TGI (SF-268 CNS) was 10.8 µM. It also gave a GI50 (PC-3 prostate) of 1.79 µM, a TGI (PC-3 prostate) of 6.25 µM and a GI50 (UO-31 renal) of 0.221 µM. For the same compound, the TGI (UO-31 renal) was 2.27 µM.
